Data reported in patent US4340609A, “Amidinourea derivative veterinary compositions for suppression of parasitemia” (William H. Rorer, Inc., priority 1980, dated 1982).
Where two headings read alike, the source gives them in different places.

What was measured:
plasmodium berghei = assay: suppression of parasitemia in mice infected with plasmodium berghei; assay type: in vivo; conditions: for ED50: Plasmodium berghei, sc
Method: Five representative amidinoureas were tested in mice infected with plasmodium berghei. The five compounds tested are the following:
Groups of 10 mice each were used in seven doses totaling 70 mice per compound. The protozoal infection was induced by intraperitoneal injection of 5,000,000 parasitized blood cells from a donor. The compound was administered subcutaneously in doses ranging from 0.15 to 10 mg. per kg., suspended on 0.5% methacel solution (doses expressed as base). The compound was repeatedly injected on the day of inoculation (day 1), day 2 and day 3. Blood smears were performed on days 4, 5, 6 and 10.
Untreated control but infected mice developed fulminating parasitemia of as high as 35% on day 10 and deaths occurred from day 12 to 14.

LD50 in mice = conditions: mouse, in vivo
[1] = mice, s.c., 1.0 mg/kg on days 1-3, 4th day
[2] = mice, s.c., 1.0 mg/kg on days 1-3, 5th day
[3] = mice, s.c., 1.0 mg/kg on days 1-3, 6th day
[4] = mice, s.c., 1.0 mg/kg on days 1-3, 10th day
[5] = mice, s.c., 2.0 mg/kg on days 1-3, 4th day
[6] = mice, s.c., 2.0 mg/kg on days 1-3, 5th day
[7] = mice, s.c., 2.0 mg/kg on days 1-3, 6th day
[8] = mice, s.c., 2.0 mg/kg on days 1-3, 10th day
[9] = mice, s.c., 10.0 mg/kg on days 1-3, 4th day
[10] = mice, s.c., 10.0 mg/kg on days 1-3, 5th day
[11] = mice, s.c., 10.0 mg/kg on days 1-3, 6th day
[12] = mice, s.c., 10.0 mg/kg on days 1-3, 10th day
[13] = mice, s.c., .15 mg/kg on days 1-3, 4th day
[14] = mice, s.c., .15 mg/kg on days 1-3, 5th day
[15] = mice, s.c., .15 mg/kg on days 1-3, 6th day
[16] = mice, s.c., .15 mg/kg on days 1-3, 10th day
[17] = mice, s.c., .20 mg/kg on days 1-3, 4th day
[18] = mice, s.c., .20 mg/kg on days 1-3, 5th day
[19] = mice, s.c., .20 mg/kg on days 1-3, 6th day
[20] = mice, s.c., .20 mg/kg on days 1-3, 10th day
[21] = mice, s.c., .30 mg/kg on days 1-3, 4th day
[22] = mice, s.c., .30 mg/kg on days 1-3, 5th day
[23] = mice, s.c., .30 mg/kg on days 1-3, 6th day
[24] = mice, s.c., .30 mg/kg on days 1-3, 10th day
[25] = mice, s.c., .50 mg/kg on days 1-3, 4th day
[26] = mice, s.c., .50 mg/kg on days 1-3, 5th day
[27] = mice, s.c., .50 mg/kg on days 1-3, 6th day
[28] = mice, s.c., .50 mg/kg on days 1-3, 10th day

Structure (SMILES): CCCNC(=O)NC(=N)Nc1c(Cl)cccc1Cl [Compound A, 1-(2,6-dichlorophenylamidino)-3-n-propylurea]
- ED50 (plasmodium berghei; 96 h, mice, s.c., levels of parasitemia, 4th day, read-out: SED50 (Suppressant Effective Dose50)): 0.71 mg/kg
- ED50 (plasmodium berghei; 120 h, mice, s.c., levels of parasitemia, 5th day, read-out: SED50 (Suppressant Effective Dose50)): 1.2 mg/kg
- ED50 (plasmodium berghei; 144 h, mice, s.c., levels of parasitemia, 6th day, read-out: SED50 (Suppressant Effective Dose50)): 1.05 mg/kg
- ED50 (plasmodium berghei; 240 h, mice, s.c., levels of parasitemia, 10th day, read-out: SED50 (Suppressant Effective Dose50)): 1.58 mg/kg
- ED50 (plasmodium berghei; mice, day 4 to day 10, read-out: HIGHEST SED50): 1.58 mg/kg
- ED50 (plasmodium berghei; mice, day 4 to day 10, read-out: LOWEST SED50): 0.71 mg/kg
- FACTOR (HIGHEST SED50 ÷ LOWEST SED50) (plasmodium berghei; factor of change, day 4 to day 10, duration of action): 2.23
- duration of action (plasmodium berghei; mice, among the five compounds): longest duration of action
- SED50 rank (plasmodium berghei; mice, day 10, among the five compounds): lowest SED50 on day 10
- Mean % Parasitemia (plasmodium berghei; [1]): 2.50%
- Mean % Suppression (plasmodium berghei; [1]): 52.3%
- Mean % Parasitemia (plasmodium berghei; [2]): 4.20%
- Mean % Suppression (plasmodium berghei; [2]): 42.5%
- Mean % Parasitemia (plasmodium berghei; [3]): 4.60%
- Mean % Suppression (plasmodium berghei; [3]): 50.5%
- Mean % Parasitemia (plasmodium berghei; [4]): 20.4%
- Mean % Suppression (plasmodium berghei; [4]): 42.5%
- % died (plasmodium berghei; mice, s.c., 1.0 mg/kg on days 1-3, 12th day): 0%
- % died (plasmodium berghei; mice, s.c., 1.0 mg/kg on days 1-3, 13th day): 20%
- % died (plasmodium berghei; mice, s.c., 1.0 mg/kg on days 1-3, 14th day): 40%
- Mean % Parasitemia (plasmodium berghei; [5]): 2.25%
- Mean % Suppression (plasmodium berghei; [5]): 57.1%
- Mean % Parasitemia (plasmodium berghei; [6]): 3.00%
- Mean % Suppression (plasmodium berghei; [6]): 59.0%
- Mean % Parasitemia (plasmodium berghei; [7]): 3.80%
- Mean % Suppression (plasmodium berghei; [7]): 59.1%
- Mean % Parasitemia (plasmodium berghei; [8]): 16.5%
- Mean % Suppression (plasmodium berghei; [8]): 53.5%
- % died (plasmodium berghei; mice, s.c., 2.0 mg/kg on days 1-3, 12th day): 0%
- % died (plasmodium berghei; mice, s.c., 2.0 mg/kg on days 1-3, 13th day): 0%
- % died (plasmodium berghei; mice, s.c., 2.0 mg/kg on days 1-3, 14th day): 20%
- Mean % Parasitemia (plasmodium berghei; [9]): 0%
- Mean % Suppression (plasmodium berghei; [9]): 100.0%
- Mean % Parasitemia (plasmodium berghei; [10]): 0%
- Mean % Suppression (plasmodium berghei; [10]): 100.0%
- Mean % Parasitemia (plasmodium berghei; [11]): 0%
- Mean % Suppression (plasmodium berghei; [11]): 100.0%
- Mean % Parasitemia (plasmodium berghei; [12]): 0%
- Mean % Suppression (plasmodium berghei; [12]): 100.0%
- % died (plasmodium berghei; mice, s.c., 10.0 mg/kg on days 1-3, 12th day): 0%
- % died (plasmodium berghei; mice, s.c., 10.0 mg/kg on days 1-3, 13th day): 0%
- % died (plasmodium berghei; mice, s.c., 10.0 mg/kg on days 1-3, 14th day): 0%
- Mean % Parasitemia (plasmodium berghei; [13]): 5.00%
- Mean % Suppression (plasmodium berghei; [13]): 4.8%
- Mean % Parasitemia (plasmodium berghei; [14]): 6.90%
- Mean % Suppression (plasmodium berghei; [14]): 5.5%
- Mean % Parasitemia (plasmodium berghei; [15]): 8.10%
- Mean % Suppression (plasmodium berghei; [15]): 12.9%
- Mean % Parasitemia (plasmodium berghei; [16]): 33.02%
- Mean % Suppression (plasmodium berghei; [16]): 7.0%
- % died (plasmodium berghei; mice, s.c., .15 mg/kg on days 1-3, 12th day): 40%
- % died (plasmodium berghei; mice, s.c., .15 mg/kg on days 1-3, 13th day): 60%
- % died (plasmodium berghei; mice, s.c., .15 mg/kg on days 1-3, 14th day): 80%
- Mean % Parasitemia (plasmodium berghei; [17]): 4.00%
- Mean % Suppression (plasmodium berghei; [17]): 23.8%
- Mean % Parasitemia (plasmodium berghei; [18]): 6.80%
- Mean % Suppression (plasmodium berghei; [18]): 6.8%
- Mean % Parasitemia (plasmodium berghei; [19]): 7.50%
- Mean % Suppression (plasmodium berghei; [19]): 19.4%
- Mean % Parasitemia (plasmodium berghei; [20]): 30.1%
- Mean % Suppression (plasmodium berghei; [20]): 15.2%
- % died (plasmodium berghei; mice, s.c., .20 mg/kg on days 1-3, 12th day): 0%
- % died (plasmodium berghei; mice, s.c., .20 mg/kg on days 1-3, 13th day): 20%
- % died (plasmodium berghei; mice, s.c., .20 mg/kg on days 1-3, 14th day): 20%
- Mean % Parasitemia (plasmodium berghei; [21]): 3.25%
- Mean % Suppression (plasmodium berghei; [21]): 38.1%
- Mean % Parasitemia (plasmodium berghei; [22]): 6.30%
- Mean % Suppression (plasmodium berghei; [22]): 13.7%
- Mean % Parasitemia (plasmodium berghei; [23]): 7.20%
- Mean % Suppression (plasmodium berghei; [23]): 22.6%
- Mean % Parasitemia (plasmodium berghei; [24]): 28.5%
- Mean % Suppression (plasmodium berghei; [24]): 19.7%
- % died (plasmodium berghei; mice, s.c., .30 mg/kg on days 1-3, 12th day): 0%
- % died (plasmodium berghei; mice, s.c., .30 mg/kg on days 1-3, 13th day): 20%
- % died (plasmodium berghei; mice, s.c., .30 mg/kg on days 1-3, 14th day): 20%
- Mean % Parasitemia (plasmodium berghei; [25]): 2.75%
- Mean % Suppression (plasmodium berghei; [25]): 47.6%
- Mean % Parasitemia (plasmodium berghei; [26]): 5.00%
- Mean % Suppression (plasmodium berghei; [26]): 31.5%
- Mean % Parasitemia (plasmodium berghei; [27]): 5.40%
- Mean % Suppression (plasmodium berghei; [27]): 41.9%
- Mean % Parasitemia (plasmodium berghei; [28]): 24.8%
- Mean % Suppression (plasmodium berghei; [28]): 30.1%
- % died (plasmodium berghei; mice, s.c., .50 mg/kg on days 1-3, 12th day): 0%
- % died (plasmodium berghei; mice, s.c., .50 mg/kg on days 1-3, 13th day): 0%
- % died (plasmodium berghei; mice, s.c., .50 mg/kg on days 1-3, 14th day): 40%
- LD50 (LD50 in mice): > 600 mg/kg
